# According to the NIST ThermoML archive (doi:10.1016/j.jct.2019.03.023):
# ± gives the expanded uncertainty stated by the source.
# Details: isochoric method
smiles,measurement,setting,value
CC(C)O [propan-2-ol],mass density,"380.35 K, Liquid",697.69 ± 1.4 kg/m3
same,mass density,"451.83 K, Liquid",581.06 ± 1.2 kg/m3
same,mass density,"507.95 K, Liquid",343.1 ± 2.4 kg/m3
same,mass density,"508.16 K, Liquid",329.2 ± 2.8 kg/m3
same,mass density,"508.28 K, Liquid",324.5 ± 2.8 kg/m3
same,mass density,"508.51 K, Gas",234.3 ± 4.5 kg/m3
same,mass density,"508.68 K, Liquid",293.3 ± 3.2 kg/m3
same,mass density,"508.69 K, Liquid",288.99 ± 3.5 kg/m3
same,mass density,"508.7 K, Gas",255.8 ± 4.6 kg/m3
same,mass density,"508.71 K, Liquid",281.9 ± 4 kg/m3
same,mass density,"508.72 K, Gas",266.3 ± 6.1 kg/m3
same,mass density,"508.72 K, Liquid",274 ± 4.6 kg/m3
